From ChEMBL document CHEMBL1125472, “5-lipoxygenase: properties, pharmacology, and the quinolinyl(bridged)aryl class of inhibitors” (J Med Chem, 1992)

How the values were obtained:
Cavia porcellus = organism: Cavia porcellus; assay: The effective dose for inhibition of LTD4-induced contractions of guinea pig trachea; type: functional
Cyclooxygenase = Cyclooxygenase (Homo sapiens, UniProt P35354+P23219); assay: The compound was tested for inhibitory activity against Prostaglandin G/H synthase in human polymorphonuclear leukocytes[PMNS]; type: cell-based
[1] = target: T1, Polyunsaturated fatty acid 5-lipoxygenase (Rattus norvegicus, UniProt P12527); assay: The compound was tested for inhibitory activity against 5-Lipoxygenase in rat polymorphonuclear leukocytes[PMNS]; type: cell-based
T1 sequence (P12527 whole entry): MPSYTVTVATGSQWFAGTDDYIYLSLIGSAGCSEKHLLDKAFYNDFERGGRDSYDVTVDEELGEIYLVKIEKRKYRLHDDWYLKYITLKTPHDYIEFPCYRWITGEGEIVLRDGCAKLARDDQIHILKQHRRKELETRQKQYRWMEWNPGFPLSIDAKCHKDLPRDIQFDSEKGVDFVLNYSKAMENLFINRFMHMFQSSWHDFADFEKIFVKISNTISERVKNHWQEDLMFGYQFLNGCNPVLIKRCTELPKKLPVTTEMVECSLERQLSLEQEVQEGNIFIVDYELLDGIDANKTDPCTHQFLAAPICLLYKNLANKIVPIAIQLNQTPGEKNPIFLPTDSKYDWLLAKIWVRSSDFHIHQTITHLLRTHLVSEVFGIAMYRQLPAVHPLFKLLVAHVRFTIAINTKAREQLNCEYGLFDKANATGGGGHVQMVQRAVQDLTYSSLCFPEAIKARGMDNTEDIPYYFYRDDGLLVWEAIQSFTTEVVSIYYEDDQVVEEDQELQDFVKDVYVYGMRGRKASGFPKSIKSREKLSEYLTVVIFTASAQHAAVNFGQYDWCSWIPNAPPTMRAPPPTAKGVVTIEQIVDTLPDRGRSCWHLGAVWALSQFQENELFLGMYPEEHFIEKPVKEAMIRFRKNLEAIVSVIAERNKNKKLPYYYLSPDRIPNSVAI

[2] = target: T1, Polyunsaturated fatty acid 5-lipoxygenase; assay: The compound was tested for inhibitory activity against 5-lipoxygenase in rat polymorphonuclear leukocytes[PMNS]; type: cell-based
[3] = target: T1, Polyunsaturated fatty acid 5-lipoxygenase; assay: The compound was tested for inhibitory activity against 5-Lipoxygenase in rat RBL-1; type: cell-based
[4] = target: T2, Polyunsaturated fatty acid 5-lipoxygenase (Rattus norvegicus) (UniProt P12527); assay: The compound was tested for inhibition of isolated 5-Lipoxygenase
T2 sequence (whole entry): T1 sequence (P12527 whole entry)

RBL-2H3 [5] = assay: The compound was tested for inhibition of translocation in SAR in RBL-2H3 cells; type: functional, Rattus norvegicus
RBL-2H3 [6] = assay: The compound was tested for inhibition LTC4 synthesis; type: functional, Rattus norvegicus
[7] = target: T2, Polyunsaturated fatty acid 5-lipoxygenase (Rattus norvegicus); assay: The compound was tested for inhibition of 5-lipoxygenase translocation in SAR in rat RBL-2H3 cells; type: functional, cell-based
[8] = target: T3, Polyunsaturated fatty acid 5-lipoxygenase (Homo sapiens, UniProt P09917); assay: The compound was tested for inhibitory activity against LT synthesis in human polymorphonuclear leukocytes[PMNS]; type: cell-based
T3 sequence (P09917 whole entry): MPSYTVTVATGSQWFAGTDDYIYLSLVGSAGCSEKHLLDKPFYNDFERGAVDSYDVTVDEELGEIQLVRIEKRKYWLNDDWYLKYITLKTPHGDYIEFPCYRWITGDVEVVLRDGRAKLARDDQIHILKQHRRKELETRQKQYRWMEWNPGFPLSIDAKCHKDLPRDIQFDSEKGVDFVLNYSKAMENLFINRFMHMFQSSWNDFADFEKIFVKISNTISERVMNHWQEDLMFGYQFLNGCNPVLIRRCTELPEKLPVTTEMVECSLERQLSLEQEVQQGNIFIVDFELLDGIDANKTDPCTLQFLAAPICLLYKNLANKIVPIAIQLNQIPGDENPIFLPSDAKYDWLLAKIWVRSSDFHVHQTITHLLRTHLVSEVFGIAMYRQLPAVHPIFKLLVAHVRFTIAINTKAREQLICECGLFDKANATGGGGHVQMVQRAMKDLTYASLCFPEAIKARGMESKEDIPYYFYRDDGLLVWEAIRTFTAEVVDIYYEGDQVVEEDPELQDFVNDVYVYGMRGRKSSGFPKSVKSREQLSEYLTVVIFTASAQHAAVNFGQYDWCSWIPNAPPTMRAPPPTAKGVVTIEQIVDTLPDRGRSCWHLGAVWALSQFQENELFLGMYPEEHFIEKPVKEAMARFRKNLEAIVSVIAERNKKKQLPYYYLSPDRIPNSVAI

[9] = target: T2, Polyunsaturated fatty acid 5-lipoxygenase (Rattus norvegicus); assay: The compound was tested for inhibition of isolated 5-lipoxygenase
[10] = target: T1, Polyunsaturated fatty acid 5-lipoxygenase; assay: The compound was tested for inhibitory activity against 5-lipoxygenase translocation inhibitor in rat RBL-2H3 cells; type: functional, cell-based
Homo sapiens [11] = organism: Homo sapiens; assay: The compound was tested for inhibitory activity against 5-Lipoxygenase in human polymorphonuclear leukocytes[PMNS]; type: functional
[12] = target: T4, Leukotriene C4 synthase (Rattus norvegicus) (UniProt Q925U2); assay: The compound was tested for inhibition LTC4 synthase from whole cells in rat
T4 sequence (whole entry): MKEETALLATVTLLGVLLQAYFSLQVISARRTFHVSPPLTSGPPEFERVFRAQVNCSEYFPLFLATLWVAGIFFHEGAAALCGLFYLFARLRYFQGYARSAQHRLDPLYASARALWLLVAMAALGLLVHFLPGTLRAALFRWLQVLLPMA

Homo sapiens [13] = organism: Homo sapiens; assay: The compound was tested for inhibitory activity against Leukotriene synthesis in human monocytes; type: functional
[14] = target: T3, Polyunsaturated fatty acid 5-lipoxygenase
[15] = target: T2, Polyunsaturated fatty acid 5-lipoxygenase (Rattus norvegicus); assay: The compound was tested for inhibition against 5-Lipoxygenase in rat polymorphonuclear leukocytes at 10 uM concentration; type: cell-based
[16] = target: T2, Polyunsaturated fatty acid 5-lipoxygenase (Rattus norvegicus); assay: The compound was tested for inhibition against 5-lipoxygenase in rat polymorphonuclear leukocytes[PMNS] at 10 uM concentration; type: cell-based

For `CONC(=O)Cc1cccc(OCc2ccc3ccccc3n2)c1`, the ED50 (Cavia porcellus) was 7.9 mg/kg.
With `CC(C)(C)c1cc(-c2cn3ncc(=O)nc3s2)cc(C(C)(C)C)c1O` the IC50 (Cyclooxygenase) was 25 µM.
For `CC(C)(C)CC(=O)c1c(CC(C)(C)C(=O)O)n(Cc2ccc(Cl)cc2)c2ccc(OCc3ccc4ccccc4n3)cc12`, the IC50 (Cyclooxygenase) was 0.002 µM.
With `Cc1ccc(S(=O)(=O)NC(=O)c2cccc(OCc3ccc4ccccc4n3)c2)cc1` the ED50 (Cavia porcellus) was 3 mg/kg and the IC50 [1] was 3.9 µM.
With `CCN(CC)C(=O)N(C)C[C@H](O)c1cccc(OCc2ccc3ccccc3n2)c1` the IC50 [2] was 2000 nM.
With `COc1ccc(-n2nc(CCC(=O)N(C)O)cc2-c2ccc(Cl)cc2)cc1` [TEPOXALIN] the IC50 [3] was 150 nM.
In the case of `COc1ccc2cc([C@H](C)C(=O)O)ccc2c1` [NAPROXEN], the Inhibition [4] is reported as greater than 20 µM, the Inhibition (RBL-2H3 [5]) is reported as greater than 10 µM and the Inhibition (RBL-2H3 [6]) is reported as greater than 10 µM.
`COc1c(OC)c(OC(C)=O)c2cc(Cl)ccc2c1OC(C)=O` [LONAPALENE] was tested, and the IC50 [3] was 500 nM.
Work on `CC(C)c1ccc2c(c1)c(SC(C)(C)C)c(CC(C)(C)C(=O)O)n2Cc1ccc(Cl)cc1` yielded an Inhibition [7] of 35 nM, an IC50 [8] of 60 nM and an Inhibition [9] greater than 20 µM. For the same compound, the IC50 [10] was 5 nM, the IC50 (Homo sapiens [11]) was 2.5 nM and the Inhibition [12] was 3 nM. For the same compound, the IC50 (Homo sapiens [13]) was 50 nM.
`O=C(CCCCCCCCc1ccccc1)NO` was tested, and the IC50 [14] was 6 µM.
`CC(c1ccoc1)N(O)C(N)=O` (configuration not stated) gave an IC50 [3] of 11000 nM.
In the case of `CC(C(=O)O)c1ccc2c3cc(OCc4ccc5ccccc5n4)ccc3n(Cc3ccc4ccccc4n3)c2c1` (configuration not stated), the Inhibition [15] is reported as 92%.
`O=C(O)CCc1nc(-c2ccc(OCc3ccc4ccccc4n3)cc2)c(-c2ccccc2)o1` was tested, and the Inhibition [16] was 96%.
